Laboratory results reported in patent US7053095B2, “Triazole compounds as transforming growth factor (TGF) inhibitors” (Pfizer Inc., priority 2002, dated 2006).

Target: T1, TβRI (ALK-5) (Homo sapiens, UniProt P36897)
T1 construct: with same assay conditions using either the kinase domain of ALK5 with Smad3 as substrate; GST
T1 sequence (P36897 205-495 limits assumed): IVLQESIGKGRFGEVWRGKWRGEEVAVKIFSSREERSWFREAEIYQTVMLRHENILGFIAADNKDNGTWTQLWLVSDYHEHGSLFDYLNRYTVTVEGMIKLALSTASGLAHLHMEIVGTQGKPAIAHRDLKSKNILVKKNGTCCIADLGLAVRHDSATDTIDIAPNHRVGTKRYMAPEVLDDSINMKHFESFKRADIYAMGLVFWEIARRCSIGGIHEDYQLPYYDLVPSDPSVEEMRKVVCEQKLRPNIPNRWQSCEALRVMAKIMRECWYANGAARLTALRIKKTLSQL
Assay: ALK-5 (TβRI) kinase assay
Type: biochemical
Method: ALK-5 (TβRI) Kinase Assay Protocol
The kinase assays were performed with 65 nM GST-ALK5 and 84 nM GST-Smad3 in 50 mM HEPES, 5 mM MgCl2, 1 mM CaCl2, 1 mM dithiothreitol, and 3_M ATP. Reactions were incubated with 0.5_Ci of [33 P]_ATP for 3 h at 30° C. Phosphorylated protein was captured on P-81 paper (Whatman, Maidstone, England), washed with 0.5% phosphoric acid, and counted by liquid scintillation. Alternatively, Smad3 or Smad1 protein was also coated onto FlashPlate Sterile Basic Microplates (PerkinElmer Life Sciences, Boston, Mass.). Kinase assays were then performed in Flash-Plates with same assay conditions using either the kinase domain of ALK5 with Smad3 as substrate or the kinase domain of ALK6 (BMP receptor) with Smad1 as substrate. Plates were washed three times with phosphate buffer and counted by TopCount (Packard Bio-science, Meriden, Conn.). (Laping, N.J. et al. Molecular Pharmacology 62:58–64 (2002)).

An IC50 of about 58 nM was found for `Cc1cccc(-c2n[nH]nc2-c2ccc3nnc(C)n3c2)n1` [Example 2, 3-Methyl-6-[5-(6-methyl-pyridin-2-yl)-2H-[1,2,3]triazol-4-yl]-[1,2,4]triazolo[4,3-a]pyridine] in this work.
